Measurements as given in patent US12102648B2, “Orally-bioavailable nucleoside analogs” (priority 2021, dated 2024).
Where two headings read alike, the source gives them in different places.

Assay: in vitro
Format: in vitro ADME
Settings: human
Method in brief: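 Permeability measured in both directions across 19-day Caco-2 layers with TEER above 600 […], incubated at 37° C without shaking; donor and receiver sampled at 10 and 90 min for LC/MS/MS. Derived values: Papp (cm/s), efflux ratio, recovery.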

[1] = Caco-2 monolayer, apical to basolateral, 90-minute incubation, read-out: Papp, A-B
[2] = Caco-2 monolayer, basolateral to apical, 90-minute incubation, read-out: Papp, B-A
[3] = Caco-2 monolayer, ER>2 indicates potential efflux transporter substrate, read-out: ER (efflux ratio)

Row | SMILES | Papp A→B at 90 min (Caco-2) | Papp B→A at 90 min (Caco-2) | efflux ratio at 90 min (Caco-2) | Papp A→B at 90 min [1] | Papp B→A at 90 min [2] | efflux ratio at 90 min [3]
1 | CC(C)(C)[C@H](N)C(=O)O[C@H]1[C@@H](O)[C@](C#N)(c2ccc3c(N)ncnn23)O[C@@H]1COC(=O)CC1CCCCC1 [Compound 397, (2R,3S,4R,5R)-5-(4-aminopyrrolo[2,1-f][1,2,4]triazin-7-yl)-5-cyano-2-((2-cyclohexylacetoxy)methyl)-4-hydroxytetrahydrofuran-3-yl (S)-2-amino-3,3-dimethylbutanoate] | 2.8 ×10⁻⁶ cm/s | 7.3 ×10⁻⁶ cm/s | 2.6 | – | – | –
2 | CC(=O)OCOC(=O)Nc1ncnn2c([C@]3(C#N)O[C@H](COC(=O)CC4(N)CCCCC4)[C@@H](O)[C@H]3O)ccc12 [Compound 363, ((2R,3S,4R,5R)-5-(4-(((acetoxymethoxy)carbonyl)amino)pyrrolo[2,1-f][1,2,4]triazin-7-yl)-5-cyano-3,4-dihydroxytetrahydrofuran-2-yl)methyl 2-(1-aminocyclohexyl)acetate] | 0.07 ×10⁻⁶ cm/s | 0.02 ×10⁻⁶ cm/s | 0.33 | – | – | –
3 | CCCCC(=O)Nc1ncnn2c([C@]3(C#N)O[C@H](COC(=O)Cc4ccccc4)[C@@H](O)[C@H]3O)ccc12 [Compound 277, ((2R,3S,4R,5R)-5-cyano-3,4-dihydroxy-5-(4-pentanamidopyrrolo[2,1-f][1,2,4]triazin-7-yl)tetrahydrofuran-2-yl)methyl 2-phenylacetate] | – | – | – | 0.47 ×10⁻⁶ cm/s | 5.4 ×10⁻⁶ cm/s | 12
4 | CNc1nc(N)nc2c1ncn2[C@@H]1O[C@H](COC(=O)C(C)C)[C@@H](OC(=O)Cc2ccccc2)[C@@]1(C)F [Compound 211, ((2R,3R,4R,5R)-5-(2-amino-6-(methylamino)-9H-purin-9-yl)-4-fluoro-4-methyl-3-(2-phenylacetoxy)tetrahydrofuran-2-yl)methyl isobutyrate] | – | – | – | 6.2 ×10⁻⁶ cm/s | 4.8 ×10⁻⁶ cm/s | 0.8
5 | CCCCCOC(=O)Nc1ncnn2c([C@]3(C#N)O[C@H](COC(=O)Cc4ccccc4)[C@@H](O)[C@H]3O)ccc12 [Compound 89, ((2R,3S,4R,5R)-5-cyano-3,4-dihydroxy-5-(4-(((pentyloxy)carbonyl)amino)pyrrolo[2,1-f][1,2,4]triazin-7-yl)tetrahydrofuran-2-yl)methyl 2-phenylacetate] | – | – | – | 2.1 ×10⁻⁶ cm/s | 6.6 ×10⁻⁶ cm/s | 3.2
6 | N#C[C@@]1(c2ccc3c(N)ncnn23)O[C@H](COC(=O)C2(c3ccccc3)CC2)[C@@H](O)[C@H]1O [Compound 289, ((2R,3S,4R,5R)-5-(4-aminopyrrolo[2,1-f][1,2,4]triazin-7-yl)-5-cyano-3,4-dihydroxytetrahydrofuran-2-yl)methyl 1-phenylcyclopropane-1-carboxylate] | 6.4 ×10⁻⁶ cm/s | 25 ×10⁻⁶ cm/s | 3.8 | – | – | –
7 | CC(=O)OC[C@H]1O[C@@](C#N)(c2ccc3c(N)ncnn23)[C@H](O)[C@@H]1O [Compound 13, ((2R,3S,4R,5R)-5-(4-aminopyrrolo[2,1-f][1,2,4]triazin-7-yl)-5-cyano-3,4-dihydroxytetrahydrofuran-2-yl)methyl acetate] | 0.2 ×10⁻⁶ cm/s | 0.6 ×10⁻⁶ cm/s | 2.7 | – | – | –
8 | CC(C)C(=O)OC[C@H]1O[C@@](C#N)(c2ccc3c(N)ncnn23)[C@H](O)[C@@H]1OC(=O)CC1CCCCC1 [Compound 58, ((2R,3S,4R,5R)-5-(4-aminopyrrolo[2,1-f][1,2,4]triazin-7-yl)-5-cyano-3-(2-cyclohexylacetoxy)-4-hydroxytetrahydrofuran-2-yl)methyl isobutyrate] | 4.1 ×10⁻⁶ cm/s | 2.1 ×10⁻⁶ cm/s | 0.5 | – | – | –
9 | N#C[C@@]1(c2ccc3c(NC(=O)[C@@H](N)Cc4ccc(F)cc4)ncnn23)O[C@H](CO)[C@@H](OC(=O)CC2CCCCC2)[C@H]1O [Compound 137, (2R,3S,4R,5R)-5-(4-((S)-2-amino-3-(4-fluorophenyl)propanamido)pyrrolo[2,1-f][1,2,4]triazin-7-yl)-5-cyano-4-hydroxy-2-(hydroxymethyl)tetrahydrofuran-3-yl 2-cyclohexylacetate] | 0.6 ×10⁻⁶ cm/s | 2.7 ×10⁻⁶ cm/s | 4.5 | – | – | –
10 | CC(C)C(=O)OC[C@H]1O[C@@](C#N)(c2ccc3c(NC(=O)[C@@H](N)C(C)C)ncnn23)[C@H](O)[C@@H]1O [Compound 116, [(2R,3S,4R,5R)-5-{4-[(2S)-2-amino-3-methylbutanamido]pyrrolo[2,1-f][1,2,4]triazin-7-yl}-5-cyano-3,4-dihydroxyoxolan-2-yl]methyl 2-methylpropanoate] | 0.15 ×10⁻⁶ cm/s | 1.2 ×10⁻⁶ cm/s | 7.9 | – | – | –
11 | CC(=O)OCOC(=O)Nc1ncnn2c([C@]3(C#N)O[C@H](COC(=O)CC4CCCCC4)[C@@H](OC(=O)[C@@H](N)C(C)C)[C@H]3O)ccc12 [Compound 358, (2R,3S,4R,5R)-5-(4-(((acetoxymethoxy)carbonyl)amino)pyrrolo[2,1-f][1,2,4]triazin-7-yl)-5-cyano-2-((2-cyclohexylacetoxy)methyl)-4-hydroxytetrahydrofuran-3-yl L-valinate] | 0.3 ×10⁻⁶ cm/s | 0.1 ×10⁻⁶ cm/s | 0.33 | – | – | –
12 | CC(C)CC(=O)OC[C@H]1O[C@@](C#N)(c2ccc3c(NC(=O)[C@@H](N)Cc4ccc(F)cc4)ncnn23)[C@H](O)[C@@H]1O [Compound 101, ((2R,3S,4R,5R)-5-(4-((S)-2-amino-3-(4-fluorophenyl)propanamido)pyrrolo[2,1-f][1,2,4]triazin-7-yl)-5-cyano-3,4-dihydroxytetrahydrofuran-2-yl)methyl 3-methylbutanoate] | 0.07 ×10⁻⁶ cm/s | 13 ×10⁻⁶ cm/s | 175 | – | – | –
13 | CCCCCOC(=O)Nc1ncnn2c([C@]3(C#N)O[C@H](CO)[C@@H](O)[C@H]3O)ccc12 [Compound 81, pentyl (7-((2R,3R,4S,5R)-2-cyano-3,4-dihydroxy-5-(hydroxymethyl)tetrahydrofuran-2-yl)pyrrolo[2,1-f][1,2,4]triazin-4-yl)carbamate] | 1 ×10⁻⁶ cm/s | 14.7 ×10⁻⁶ cm/s | 14 | – | – | –
14 | CCC(=O)OC[C@H]1O[C@@](C#N)(c2ccc3c(N)ncnn23)[C@H](O)[C@@H]1OC(=O)CC [Compound 71] | – | – | – | 0.94 ×10⁻⁶ cm/s | 2.3 ×10⁻⁶ cm/s | 2.4
15 | CCCC(=O)Nc1ncnn2c([C@]3(C#N)O[C@H](COC(=O)Cc4ccccc4)[C@@H](OC(=O)[C@@H](N)C(C)C)[C@H]3O)ccc12 [Compound 346, (2R,3S,4R,5R)-5-(4-butyramidopyrrolo[2,1-f][1,2,4]triazin-7-yl)-5-cyano-4-hydroxy-2-((2-phenylacetoxy)methyl)tetrahydrofuran-3-yl L-valinate] | – | – | – | 1.6 ×10⁻⁶ cm/s | 9 ×10⁻⁶ cm/s | 5.7
16 | CC(C)C(=O)OC[C@H]1O[C@@](C#N)(c2ccc3c(N)ncnn23)[C@H](O)[C@@H]1OC(=O)Cc1ccccc1 [Compound 60, ((2R,3S,4R,5R)-5-(4-aminopyrrolo[2,1-f][1,2,4]triazin-7-yl)-5-cyano-4-hydroxy-3-(2-phenylacetoxy)tetrahydrofuran-2-yl)methyl isobutyrate] | – | – | – | 2.8 ×10⁻⁶ cm/s | 1.7 ×10⁻⁶ cm/s | 0.58
17 | CCCCC(=O)Nc1ncnn2c([C@]3(C#N)O[C@H](CO)[C@@H](OC(=O)Cc4ccccc4)[C@H]3O)ccc12 [Compound 340, (2R,3S,4R,5R)-5-cyano-4-hydroxy-2-(hydroxymethyl)-5-(4-pentanamidopyrrolo[2,1-f][1,2,4]triazin-7-yl)tetrahydrofuran-3-yl 2-phenylacetate] | – | – | – | 0.64 ×10⁻⁶ cm/s | 0.23 ×10⁻⁶ cm/s | 0.35
18 | N#C[C@@]1(c2ccc3c(N)ncnn23)O[C@H](COC(=O)[C@@H](N)Cc2ccccc2)[C@@H](OC(=O)CC2CCCCC2)[C@H]1O [Compound 372, ((2R,3S,4R,5R)-5-(4-aminopyrrolo[2,1-f][1,2,4]triazin-7-yl)-5-cyano-3-(2-cyclohexylacetoxy)-4-hydroxytetrahydrofuran-2-yl)methyl L-phenylalaninate] | 0.73 ×10⁻⁶ cm/s | 0.83 ×10⁻⁶ cm/s | 1.1 | – | – | –
19 | CC(C)C(=O)OC[C@H]1O[C@@](C#N)(c2ccc3c(N)ncnn23)[C@H](O)[C@@H]1OC(=O)C(C)C [Compound 62, (2R,3S,4R,5R)-5-(4-aminopyrrolo[2,1-f][1,2,4]triazin-7-yl)-5-cyano-4-hydroxy-2-((isobutyryloxy)methyl)tetrahydrofuran-3-yl isobutyrate] | 3 ×10⁻⁶ cm/s | 2.4 ×10⁻⁶ cm/s | 0.8 | – | – | –
20 | CC(C)[C@H](N)C(=O)Nc1ncnn2c([C@]3(C#N)O[C@H](CO)[C@@H](OC(=O)Cc4ccccc4)[C@H]3O)ccc12 [Compound 144, (2R,3S,4R,5R)-5-(4-((S)-2-amino-3-methylbutanamido)pyrrolo[2,1-f][1,2,4]triazin-7-yl)-5-cyano-4-hydroxy-2-(hydroxymethyl)tetrahydrofuran-3-yl 2-phenylacetate] | – | – | – | 0.03 ×10⁻⁶ cm/s | 1.8 ×10⁻⁶ cm/s | 53
21 | CC(C)CC(=O)O[C@H]1[C@@H](O)[C@](C#N)(c2ccc3c(N)ncnn23)O[C@@H]1COC(=O)CC1CCCCC1 [Compound 25, (2R,3S,4R,5R)-5-(4-aminopyrrolo[2,1-f][1,2,4]triazin-7-yl)-5-cyano-2-((2-cyclohexylacetoxy)methyl)-4-hydroxytetrahydrofuran-3-yl 3-methylbutanoate] | 56 ×10⁻⁶ cm/s | 42 ×10⁻⁶ cm/s | 0.7 | – | – | –
22 | CC(C)CC(=O)OC[C@H]1O[C@@](C#N)(c2ccc3c(N)ncnn23)[C@H](O)[C@@H]1OC(=O)CC1CCCCC1 [Compound 18, ((2R,3S,4R,5R)-5-(4-aminopyrrolo[2,1-f][1,2,4]triazin-7-yl)-5-cyano-3-(2-cyclohexylacetoxy)-4-hydroxytetrahydrofuran-2-yl)methyl 3-methylbutanoate] | 16 ×10⁻⁶ cm/s | 8.8 ×10⁻⁶ cm/s | 0.6 | – | – | –
